Reference: patent publication US7452869B2, “NIP3 family of proteins” (University of Manitoba, priority 2000, dated 2008)
“Also recorded” adds a separate entry of the source.

Columns and labels:
BNIP3 [1] = assay: intrastriatal injection in rats, BNIP3 immunohistochemistry and in situ hybridization; format: in vivo; settings: rat
Method: Male Sprague-Dawley rats, with body weights ranging between 200 to 250 g, were obtained from the University of Manitoba Central Animal Care breeding facility. All procedures followed Canadian Council on Animal Care guidelines and were approved by the Animal Care Committee at the University of Manitoba. Animals were anesthetized with 74 mg/kg sodium pentobarbital (i.p.) and placed in a stereotaxic surgery frame. Unilateral intrastriatal injections were performed using the following coordinates (in mm); AP […], ML 3.0 and DV 4.5 (Paxinos, G. et al. (1986)). Drugs were administered over a 5 minute period in a volume of 1 μl using a 10 μl syringe fitted with a 30-gauge needle. Following injection, the needle was left in place for 5 minutes before being slowly withdrawn to allow diffusion of the drug away from the injection site. Kainic acid, dissolved in 50 mM Tris-HCl with the pH adjusted to 7.4 with NaOH, was administered at a dose of 2.5 nmol. Control rats received unilateral injections of 1 μl 50 mM Tris-HCl, pH 7.4. […]
For immunohistochemistry and in situ hybridization, rats were perfused transcardially with 0.9% saline and then 4% paraformaldehyde. […] Brain sections were hybridized with the probe, incubated with an alkaline phosphatase-conjugated anti-digoxigenin antibody, and labeled cells were detected with BCIP/NBT.

[2] = tested on: mitochondrial permeability transition pore; assay: mitochondrial permeability transition in ventricular myocytes, calcein-AM with cobalt chloride; format: cell-based, rat; settings: Bongkrekic acid 50 μmol/L
Text: To monitor mitochondrial permeability transition (PT), ventricular myocytes were loaded with 5 μmol/L calcein-acetoxymethylester (calcein-AM, Molecular Probes) in the presence of 2 to 5 mmol/L cobalt chloride as previously reported (Gurevich et al., 2001; Petronilli et al., 1998).

ventricular myocytes = assay: cell viability of ventricular myocytes, calcein acetoxymethyl ester / ethidium homodimer-1; format: cell-based; settings: Bongkrekic acid 50 μmol/L
Method: Ventricular myocytes were isolated from 1- to 2-day-old Sprague-Dawley rats (University of Manitoba, Winnipeg, Canada) and submitted to primary culture as reported (Kirshenbaum and Schneider, 1995). Myocytes were subjected to hypoxia for 24 hours in an air-tight chamber continually gassed with 95% N2-5% CO2, as previously reported (Moissac et al., 2000; Long et al., 1997; Tanaka et al., 1994). Adult rat hearts (n=3) were excised from adult rats (250 to 300 g) and subjected to global hypoxia for 1 hour on a modified Langendorff perfusion system with buffer continually gassed with 95% N2-5% CO2, as previously reported (Kirshenbaum, 1993). Heart failure was induced in rats by surgical ligation of the left anterior descending coronary artery, as previously reported (Dixon et al., 1992). Non-failing sham control hearts and those with heart failure were excised from animals 8 weeks after myocardial infarction. Hearts (n=3) were dissected to remove the infarcted scar tissue, and the left ventricular free wall was homogenized and analyzed by Western blot for BNIP3 expression. Animals were handled according to guidelines established by the University of Manitoba and Canadian Council on Animal Care.
The cDNAs for BNIP3 full-length (BNIP3) and carboxyl terminal transmembrane domain deletion mutant (BNIP3ΔTM) have been described previously (Vande et al., 2000). Recombinant adenoviruses encoding the full-length BNIP3 or transmembrane deletion mutant are designated AdBNIP3 or AdBNIP3ΔTM, respectively, and generated as reported previously (Kirshenbaum et al., 1993).
Cell viability was determined using the vital dyes 2 μmol/L calcein acetoxymethyl ester (green) to determine the number of living cells and 2 μmol/L ethidium homodimer-1 (red) (Molecular Probes) to identify the number of dead cells (Kirshenbaum and Schneider, 1995). The number of green cells versus red cells was used to determine changes in cell viability (Moissac et al., 2000). Cells were analyzed from at least n=3 independent myocyte isolations counting ≧200 cells for each condition tested. Data are expressed as mean±SE percent reduction from control.

PT pore = assay: mitochondrial Dcm (DiOC6), ROS production (HE) and PI staining by flow cytometry in BNIP3-transfected 293T cells; format: cell-based
Method: Changes in mitochondrial function were determined by incubating 10 6 293T cells, transiently transfected via the CaP04 method, with either 1 mM JC-1, 40 nM DiOC6, or 2 mM dihydroethidium (HE) (all from Molecular Probes, Inc.) for 30 minutes at 37° C. in Hanks' balanced salt solution (Gibco-BRL). Cells were scored using a FACScalibur flow cytometer (Becton-Dickinson, San Jose, Calif.), and data were analyzed on Celiquest software, version 3.1 (Becton-Dickinson). Controls were performed in the presence or absence of […] mClCCP (Sigma) or an excess of 30% H2 02. For inhibition experiments, cyclosporin A (Sigma) or bongkrekic acid (a gift from J. A. Duine, Delft University, Delft, The Netherlands) was added 2 hours prior to transfection. All cells were harvested 8 hours after transfection and stained with 40 nM DiOC6, 2 mM HE, or 1 mg of propidium iodide (PI) (Sigma) per ml. In all cases, samples were gated to exclude cellular debris.

BNIP3 [3] = assay: western blot of BNIP3 in neonatal cardiac myocytes treated with lactacystin (FIG. 12); format: cell-based; settings: hypoxic or normoxic 24 hours
Method: Neonatal cardiac myocytes were incubated in hypoxic (+) or normoxic (−) conditions for 24 hours. Cells were treated with lactacystin at the indicated concentrations and lysates harvested for western blotting with anti-BNIP3 antibody. BNIP3 band is indicated with an arrow.

[4] = tested on: primary hippocampal neurons; assay: excitotoxic cell death of primary hippocampal neurons, trypan blue exclusion; format: cell-based, rat
Method: (§1) Primary hippocampal neurons were prepared from 18-day-old embryonic Sprague-Dawley rats as described previously by Haughey, N. J. et al. (2001). Briefly, hippocampal tissue was dissociated by gentle tituration in a calcium-free Hank's balanced salt solution and was centrifuged at 1000×g. Cells were resuspended in Dulbecco's modified Eagle's medium (DMEM)/F12 nutrient mixture containing 10% heat-inactivated fetal bovine serum and 1% antibiotic solution (104 IU of penicillin G/ml, 10 mg streptomycin/ml and 25 μg amphotericin B/ml) in 0.9% NaCl (Sigma, St Louis, Mo., USA). Hippocampal neurons were plated at a density of 2×10^5 cells/ml on 12-mm diameter poly d-lysine-coated glass coverslips. Three hours after plating, the media was replaced with serum-free Neurobasal media containing 1% B-27 supplement (Gibco, Rockville, Md., USA).
To determine the extent to which NMDA-type glutamate receptors were involved in BNIP3 expression and excitotoxic cell death, the inventors used the agonist NMDA (100 μM) in the absence or presence of the NMDA receptor antagonist MK-801 (10 μM). To determine the extent to which caspase activation contributes to BNIP3-mediated cell death, hippocampal cells were incubated in the absence or presence of the broad spectrum cell permeable caspase inhibitors z-VAD-FMK (50 μM) and BOC-D-FMK (50 μM); these inhibitors were applied 30 minutes prior to application of glutamate or NMDA. […]
In vitro cell death was estimated using trypan blue exclusion. Cells were incubated in 0.4% trypan blue solution for 30 minutes and then counted on a bright-field microscope. Nonviable cells were distinguished by their dark blue staining. To examine nuclear morphology, nuclear DNA was stained with Hoescht 33342. DNA fragmentation was detected by TUNEL using an in situ cell death detection kit with fluorescein. Statistical analyses were by ANOVA with Tukey's post-test.

BNIP3 [5] = assay: BNIP3 immunohistochemistry in primary hippocampal neurons after glutamate; format: cell-based, rat; settings: 100 μM glutamate
Method: as §1
For immunohistochemistry and in situ hybridization, rats were perfused transcardially with 0.9% saline and then 4% paraformaldehyde. Brains were carefully removed and post-fixed overnight in PBS containing 4% paraformaldehyde. After rinsing in PBS, the brains were placed in PBS containing 0.5 M sucrose (pH 7.3) at 4° C. until buoyancy was lost. […] Brain sections were hybridized with the probe, incubated with an alkaline phosphatase-conjugated anti-digoxigenin antibody, and labeled cells were detected with BCIP/NBT.

[6] = drug 2 hours prior to transfection, harvested 8 hours posttransfection, 25 and 50 mM cyclosporin A, 100 mM bongkrekic acid

C=C(C)[C@H]1CN[C@H](C(=O)O)[C@H]1CC(=O)O [kainic acid]
BNIP3 expression in striatum (immunohistochemistry) (BNIP3 [1]; intrastriatal 1 μl, 2.5 nmol kainic acid, 5 nmol CNQX alone or mixed with kainic acid, 48 hours): observed only in those rats that received kainic acid alone | levels of BNIP3 mRNA (in situ hybridization) (BNIP3 [1]; intrastriatal kainic acid): increased

CO[C@H](C/C=C\C=C\CC/C=C/C[C@H](C)/C=C/C(=C\C(=O)O)CC(=O)O)/C(C)=C\C=C(/C)C(=O)O [bongkrekic acid]
BNIP3-induced loss of mitochondrial calcein staining [2]: suppressed | BNIP3-induced mitochondrial defects and cell death (ventricular myocytes): prevented | maximum suppression of BNIP3 effects, of that in control cells (PT pore; Dcm suppression, ROS generation and cell death): about 50% | cell death (PI staining) in BNIP3 transfectants (PT pore; drug 2 hours prior to transfection, harvested 8 hours posttransfection, 50 mM cyclosporin A, 100 mM bongkrekic acid): dose-dependent reversal; also recorded: significantly suppressed | Dcm suppression (DiOC6) in BNIP3 transfectants (PT pore; [6]): dose-dependent reversal; also recorded: significantly inhibited | ROS generation (HE fluorescence) in BNIP3 transfectants (PT pore; [6]): dose-dependent reversal; also recorded: inhibited

CC(=O)N[C@@H](CSC(=O)[C@]1([C@@H](O)C(C)C)NC(=O)[C@H](C)[C@@H]1O)C(=O)O [Lactacystin]
degradation of the BNIP3 protein (western blot) (BNIP3 [3]): slows the degradation

N[C@@H](CCC(=O)O)C(=O)O [glutamate]
hippocampal neurons killed ([4]; 10 μM glutamate for 6 hours, then Neurobasal media 24 hours): 40% | cells stained positively for trypan blue ([4]; 100 μM glutamate for 6 hours, then Neurobasal media 24 hours): 70% | neuronal cell death (trypan blue exclusion) ([4]; 6 hours after application, p<0.01): significantly increased | cells stained positive for BNIP3 (BNIP3 [5]): more than 50%
